Test results from patent publication US4560549A, “Method of relieving pain and inflammatory conditions employing substituted salicylamides” (Lever Brothers Company, priority 1983, dated 1985).

What was measured:
[1] = tested on: inflammation of mice ears caused by calcium ionophore (A-23187); assay: Anti-inflammatory activity on inflammation of mice ears caused by calcium ionophore A-23187 (Examples 4-7); type: in vivo, male outbred hairless mice; settings: for Reduction in Edema (%) / Reduction in Erythema (%): Table I, 1.5 micromole topically to ear 30 min after 4.0 nmole A-23187, assessed at 4 hrs; for anti-inflammatory activity (in words): at the concentration used (1.5 micromole), data of Table 1; for reduction of inflammation (in words): topical, 30 minutes after application of ionophore A-23187
Text: In a group of 5 male outbred hairless mice, inflammation is induced on their ears by the topical application thereto of 4.0 nmole in acetone solution (total volume 10 microliter) of the known divalent calcium ionophore (antibiotic A-23187), which is derived from streptomyces chartreusis and is a member of a known class of compounds having ionophoric activity. See, e.g. Pressman, B. C., "Biological Applications of Ionophores", Ann. Rev. Biochem., 45, 501, 1976. […] See Marks, F., Furstenberger, G., and Kownatzki, E., "Prostaglandin E-mediated Mitogenic Stimulation of Mouse Epidermis in vivo by divalent cation ionophore A-23187 and by tumor promoter 12-O-tetradecanoyl phorbol-13-acetate, Cancer Res., 41, 696, 1981.
In each animal only one ear is treated, the other untreated ear serving as a control.
In Examples 4, 5 and 6 the compounds AN-10, APCF3-8 and AMCF3-8, respectively, are topically applied to the treated ears of different groups of five male outbred hairless mice 30 minutes following the topical application thereto of the ionophore A-23187. Specifically, 1.5 micromole of the amido compound in acetone solution (total volume 10 microliters) is applied topically to treated male outbred hairless mice ears 30 min. after topical application thereto of a calcium ionophore (A-23187, 4.0 nmole total volume to 10 microliter) in acetone. As already noted, in each case, each animal serves as its own control in that only one ear is subjected to said test regime while the other ear is left untouched. Erythema and edema are assessed 4 hrs. after application of the ionophore. In Control Example 7, 3,4',5-tribromosalicylanilide (TBS) is applied in the same manner.

mice backs (skin) = settings: topical application to mice backs; cited from earlier work
[2] = tested on: ears of hairless outbred mice inflamed with A-23187; assay: Reduction in edema of A-23187 inflamed mouse ears by ear weight (Examples 8-14, Studies A and B); type: in vivo, young, male, adult hairless outbred mice (Skh:hr-1 strain); settings: for Reduction in Edema (%): sacrificed at four hours; for anti-inflammatory activity (in words): under the test conditions, data of Table 2
Text: (§1) Acute inflammation is induced by the application of 4 nano mole of the antibiotic A-23187 to the ears of young, male, adult hairless outbred mice (Skh:hr-1 strain). Thereafter, one of the compounds AN-10, AMCF3-8, ACBXE-9, acryloyl AN-10, S-4-F and SAN-6 is applied to the affected ears and the degree of reduction in edema (inflammation) noted.
The method used in the subject Examples differs from the method used in the preceding Examples (4 through 7) in two respects.
(§2) Secondly, in the expression of the data, the objective parameter of ear weights is used as the sole data source (for the reduction of edema) as erythematous responses are not recorded. Ear weights are determined by sacrificing the animals four hours after initial application of the antibiotic A-23187 or other control material by the use of CO2 gas. Thereafter, the ears are excised by cutting along the characteristic ridge readily discernible along the inner aspect of the ears. Wet and dry ear weights are used to determine the extent of the edema or inflammation present.
In Study A, 28 test animals are randomized into four treatment groups of seven each and subjected to the following ear treatment regimen:
Each animal is dosed with a treatment consisting of a 10 microliter quantity of the assigned test material solution (or pure acetone in the case of the animals of Group D) applied to the outer aspect of both ears, i.e., 10 microliter of test material per ear. The concentrations of the respective materials in acetone solution are such that a 10 microliter dose of a solution of the antibiotic A-23187 contains 4 nano mole of such antibiotic. The corresponding quantity in the case of the AN-10 in acetone solution is 1.5 micromole. The animals of Groups A and B are initially treated with the acetone solution of A-23187. In the case of the animals of Group B alone, 10 microliter of the acetone solution of AN-10 is applied to the affected ears 1/2 hour after the application of the above-mentioned quantity of a solution in acetone of the antibiotic A-23187. The animals of Group C receive a 10 microliter dose per ear of the AN-10 in acetone solution alone. The animals of Group D receive a dose of 10 microliter per ear of pure acetone. All the test subjects are sacrificed four hours after the application of A-23187 to the animals of Groups A and B or the other test materials in the case of the animals of Groups C and D. The results are summarized in Table 2 noted below.
(§3) A second group of studies (Study B) is conducted on two consecutive days with two sets of mice (totalling […]) received from the same shipment.
On Day 2, using the second set of 40 mice, sub-divided into 8 groups of 5 each, the six compounds in question are applied as acetone solutions in the manner described under Study A to mice ears inflamed with A-23187 again, as described in Study A above. As with the studies conducted on Day 1, the remaining two groups of 5 animals each serve as controls and their ears are dosed with A-23187 and acetone respectively.
(§4) The amount of each salicylamide compound applied is kept constant, for Days 1 and 2, at 1.5 micromole per 10 microliter of test solution. Sacrifice begins four hours after application A-23187, on both days, and the results are recorded. Table 2 summarizes the results of the regimen of testing involved with each one of the 30 animals in question on Day 2 with the remaining 10 animals serving as controls as already noted.

untreated ears of mice = assay: Inflammatory potential of the compounds on untreated mouse ears (Study B, Day 1); type: in vivo, young, male, adult hairless outbred mice (Skh:hr-1 strain); settings: 1.5 micromole per 10 microliter on untreated ears
Text: as §1, §2, §3
The first batch of 40 animals is divided into […] of 5 each. […] The remaining two groups of 5 animals each serve as controls and their ears are dosed with A-23187 and acetone respectively.
as §4

[3] = tested on: Osborne-Mendel white rats; settings: single dose oral route, female Osborne-Mendel white rats; cited from earlier work
rats = settings: comparable toxicity for aspirin; cited from earlier work
[4] = Study B, Day 2, 1.5 micromole per 10 microliter, A-23187 inflamed ears

SMILES	Reduction in Edema (%) [2, 4] [%]	anti-inflammatory activity (in words) [2]	noticeable inflammation caused by the compound alone (untreated ears of mice)	Reduction in Edema (%) [1] [%]	Reduction in Erythema (%) [1] [%]	anti-inflammatory activity (in words) [1]	further results
CNc1ccc2oc(C[C@H]3O[C@@]4(CC[C@H]3C)O[C@H]([C@H](C)C(=O)c3ccc[nH]3)[C@H](C)C[C@H]4C)nc2c1C(=O)O [A-23187, reference compound]	–	–	–	–	–	–	acute inflammation on treated mice ears (in words) ([1]; topical application of A-23187, time and dose dependent): Acute inflammation develops on treated mice ears within 4 hours; skin irritation (in words) (mice backs (skin)): potent ability to cause skin irritation with white blood cell infiltration, erythema (skin reddening), edema, epidermal hypertrophy and subsequent epidermal hyperplasia
CCCCCCCCC(=O)c1ccc(O)c(C(=O)Nc2cccc(C(=O)OCC)c2)c1 [ACBXE-9]	76	significant anti-inflammatory activity	none of the six compounds being tested cause any noticeable inflammation	–	–	–	–
CCCCCCCC(=O)c1ccc(O)c(C(=O)Nc2cccc(C(F)(F)F)c2)c1 [AMCF3-8]	81	significant anti-inflammatory activity	none of the six compounds being tested cause any noticeable inflammation	80	76	effective anti-inflammatories	more edema reduction activity of the meta isomer than the para isomer ([1]; AMCF3-8 versus APCF3-8): about 30%; more erythema reduction activity of the meta isomer than the para isomer ([1]; AMCF3-8 versus APCF3-8): about 20%
CCCCCCCCCC(=O)c1ccc(O)c(C(=O)Nc2ccc([N+](=O)[O-])cc2)c1 [AN-10]	81	significant anti-inflammatory activity	none of the six compounds being tested cause any noticeable inflammation	59	59	effective anti-inflammatories	LD50 [3]: greater than 2000 mg./kg.; Reduction in Edema (%) ([2]; Study A, 1.5 micromole per ear 1/2 hour after 4 nano mole A-23187): 55%
CCCCCCCC(=O)c1ccc(O)c(C(=O)Nc2ccc(C(F)(F)F)cc2)c1 [APCF3-8]	–	–	–	48	57	effective anti-inflammatories	–
CCCCc1ccc(O)c(C(=O)Nc2cccc(C(F)(F)F)c2)c1 [S-4-F]	70	significant anti-inflammatory activity	none of the six compounds being tested cause any noticeable inflammation	–	–	–	–
CCCCCCc1ccc(O)c(C(=O)Nc2ccc([N+](=O)[O-])cc2)c1 [SAN-6]	59	significant anti-inflammatory activity	none of the six compounds being tested cause any noticeable inflammation	–	–	–	–
O=C(Nc1ccc(Br)cc1)c1cc(Br)cc(Br)c1O [TBS, 3,4',5-tribromosalicylanilide, reference compound]	–	–	–	12	35	essentially inactive	–
C=CC(=O)Oc1ccc(C(=O)CCCCCCCCC)cc1C(=O)Nc1ccc([N+](=O)[O-])cc1 [acryloyl AN-10]	82	significant anti-inflammatory activity	none of the six compounds being tested cause any noticeable inflammation	–	–	–	–
CC(=O)Oc1ccccc1C(=O)O [aspirin, acetylsalicylic acid]	–	–	–	–	–	–	LD50 (rats): about 1.75 g/kg. body weight
C[C@]12CCC(=O)C=C1CC[C@@H]1[C@@H]2[C@@H](O)C[C@@]2(C)[C@H]1CC[C@]2(O)C(=O)CO [hydrocortisone, reference compound]	–	–	–	–	–	–	reduction of inflammation (in words) [1]: reduction of inflammation
COc1ccc2c(c1)c(CC(=O)O)c(C)n2C(=O)c1ccc(Cl)cc1 [indomethacin, reference compound]	–	–	–	–	–	–	reduction of inflammation (in words) [1]: reduction of inflammation
